# Patent US20100092402A1, “TREATMENT OF RESPIRATORY DISEASE” (Mucokinetica Ltd., priority 2007, published 2010)
# What was measured:
# nasal epithelium = experiment: Mucus host-defence responses during nasal perfusion; type: in vivo, human
# Description: Perfusion of the nasal epithelium with low chloride Ringer/HEPES buffer imposes a chemical gradient for chloride secretion, and therefore also provides a drive for fluid secretion.
# Mucus host-defence episodes were scored 1 to 3 on the basis of the number of features and the magnitude of the responses observed. FIG. 10 reports the score of the episodes recorded, and indicates the time of their occurrence in the perfusion protocol.
# [1] = tested on: cortical collecting duct of the rabbit kidney; conditions: Muto et al. 1993, cited from earlier work
smiles,measurement,setting,value
N=C(N)c1ccc2cc(OC(=O)c3ccc(N=C(N)N)cc3)ccc2c1 [6-amidino-2-napthyl 4-guanidinobenzoate],scores for episodes of mucus host-defence response (scored 1 to 3),nasal epithelium; perfusion of 3.10^−6 M in low chloride Ringer/HEPES buffer,Highest scores
same,mucus host-defence responses,nasal epithelium; perfusion with 3.10^−6 M in low chloride Ringer/HEPES buffer,stimulated episodes of mucus host-defence responses
same,effect on the rabbit kidney model,[1]; 10^−5 M,without effect
same,"change in transepithelial voltage, as share of that achievable by 5.10^−6 M amiloride",[1]; perfused at 10^−4 M,40%
same,onset of change in transepithelial voltage,[1]; perfusion of 10^−4 M,≤ 30 s
